The NIST ThermoML archive (doi:10.1016/j.jct.2012.03.003)

Experiment: xn = mol fraction of the nth substance listed
Conditions: Liquid, Vibrating tube method

COc1cc2c(cc1O)CC1c3c(cc(O)c(OC)c3-2)CCN1C (stereo not given) [boldine] + CCO
Conditions | mass density [kg/m3]
323.04 K, 16000 kPa, x1 = 0.0074 | 793.69
323.04 K, 16000 kPa, x1 = 0.0196 | 821.98
323.04 K, 17000 kPa, x1 = 0.0074 | 794.55
323.04 K, 17000 kPa, x1 = 0.0196 | 822.81
323.04 K, 18000 kPa, x1 = 0.0074 | 795.4
323.04 K, 18000 kPa, x1 = 0.0196 | 823.62
323.04 K, 19000 kPa, x1 = 0.0074 | 796.23
323.04 K, 19000 kPa, x1 = 0.0196 | 824.42
323.04 K, 20000 kPa, x1 = 0.0074 | 797.04
323.04 K, 20000 kPa, x1 = 0.0196 | 825.2
323.05 K, 1000 kPa, x1 = 0.0267 | 820.88
323.05 K, 2000 kPa, x1 = 0.0267 | 821.74
323.05 K, 3000 kPa, x1 = 0.0267 | 822.62
323.05 K, 4000 kPa, x1 = 0.0267 | 823.5
323.05 K, 5000 kPa, x1 = 0.0267 | 824.37
323.05 K, 6000 kPa, x1 = 0.0267 | 825.26
323.05 K, 7000 kPa, x1 = 0.0267 | 826.15
323.05 K, 8000 kPa, x1 = 0.0267 | 827.02
323.05 K, 9000 kPa, x1 = 0.0267 | 827.89
323.05 K, 10000 kPa, x1 = 0.0267 | 828.78
323.05 K, 11000 kPa, x1 = 0.0267 | 829.64
323.05 K, 12000 kPa, x1 = 0.0267 | 830.5
323.05 K, 13000 kPa, x1 = 0.0267 | 831.36
323.05 K, 14000 kPa, x1 = 0.0267 | 832.21
323.05 K, 15000 kPa, x1 = 0.0267 | 833.04
323.05 K, 16000 kPa, x1 = 0.0267 | 833.87
323.05 K, 17000 kPa, x1 = 0.0267 | 834.68
323.05 K, 18000 kPa, x1 = 0.0267 | 835.48
323.05 K, 19000 kPa, x1 = 0.0267 | 836.27
323.05 K, 20000 kPa, x1 = 0.0267 | 837.04
323.11 K, 1000 kPa, x1 = 0.0136 | 793.39
323.11 K, 2000 kPa, x1 = 0.0136 | 794.29
323.11 K, 3000 kPa, x1 = 0.0136 | 795.2
323.11 K, 4000 kPa, x1 = 0.0136 | 796.12
323.11 K, 5000 kPa, x1 = 0.0136 | 797.04
323.11 K, 6000 kPa, x1 = 0.0136 | 797.96
323.11 K, 7000 kPa, x1 = 0.0136 | 798.88
323.11 K, 8000 kPa, x1 = 0.0136 | 799.8
323.11 K, 9000 kPa, x1 = 0.0136 | 800.72
323.11 K, 10000 kPa, x1 = 0.0136 | 801.63
323.11 K, 11000 kPa, x1 = 0.0136 | 802.53
323.11 K, 12000 kPa, x1 = 0.0136 | 803.44
323.11 K, 13000 kPa, x1 = 0.0136 | 804.33
323.11 K, 14000 kPa, x1 = 0.0136 | 805.21
323.11 K, 15000 kPa, x1 = 0.0136 | 806.08
323.11 K, 16000 kPa, x1 = 0.0136 | 806.95
323.11 K, 17000 kPa, x1 = 0.0136 | 807.79
323.11 K, 18000 kPa, x1 = 0.0136 | 808.63
323.11 K, 19000 kPa, x1 = 0.0136 | 809.44
323.11 K, 20000 kPa, x1 = 0.0136 | 810.25
332.92 K, 1000 kPa, x1 = 0.0012 | 757.69
332.92 K, 2000 kPa, x1 = 0.0012 | 758.72
332.92 K, 3000 kPa, x1 = 0.0012 | 759.75
332.92 K, 4000 kPa, x1 = 0.0012 | 760.77
332.92 K, 5000 kPa, x1 = 0.0012 | 761.81
332.92 K, 6000 kPa, x1 = 0.0012 | 762.85
332.92 K, 7000 kPa, x1 = 0.0012 | 763.86
332.92 K, 8000 kPa, x1 = 0.0012 | 764.88
332.92 K, 9000 kPa, x1 = 0.0012 | 765.9
332.92 K, 10000 kPa, x1 = 0.0012 | 766.9
332.92 K, 11000 kPa, x1 = 0.0012 | 767.9
332.92 K, 12000 kPa, x1 = 0.0012 | 768.88
332.92 K, 13000 kPa, x1 = 0.0012 | 769.87
332.92 K, 14000 kPa, x1 = 0.0012 | 770.83
332.92 K, 15000 kPa, x1 = 0.0012 | 771.78
332.92 K, 16000 kPa, x1 = 0.0012 | 772.72
332.92 K, 17000 kPa, x1 = 0.0012 | 773.63
332.92 K, 18000 kPa, x1 = 0.0012 | 774.53
332.92 K, 19000 kPa, x1 = 0.0012 | 775.42
332.92 K, 20000 kPa, x1 = 0.0012 | 776.29
332.93 K, 1000 kPa, x1 = 0.0074 | 770.77
332.93 K, 2000 kPa, x1 = 0.0074 | 771.77
332.93 K, 3000 kPa, x1 = 0.0074 | 772.79
332.93 K, 4000 kPa, x1 = 0.0074 | 773.79
332.93 K, 5000 kPa, x1 = 0.0074 | 774.8
332.93 K, 6000 kPa, x1 = 0.0074 | 775.81
332.93 K, 7000 kPa, x1 = 0.0074 | 776.8
332.93 K, 8000 kPa, x1 = 0.0074 | 777.8
332.93 K, 9000 kPa, x1 = 0.0074 | 778.8
332.93 K, 10000 kPa, x1 = 0.0074 | 779.77
332.93 K, 11000 kPa, x1 = 0.0074 | 780.75
332.93 K, 12000 kPa, x1 = 0.0074 | 781.71
332.93 K, 13000 kPa, x1 = 0.0074 | 782.66
332.93 K, 14000 kPa, x1 = 0.0074 | 783.61
332.93 K, 15000 kPa, x1 = 0.0074 | 784.53
332.93 K, 16000 kPa, x1 = 0.0074 | 785.45
332.93 K, 17000 kPa, x1 = 0.0074 | 786.34
332.93 K, 18000 kPa, x1 = 0.0074 | 787.23
332.93 K, 19000 kPa, x1 = 0.0074 | 788.09
332.93 K, 20000 kPa, x1 = 0.0074 | 788.95
332.95 K, 1000 kPa, x1 = 0.0196 | 799.67
332.95 K, 2000 kPa, x1 = 0.0196 | 800.63
332.95 K, 3000 kPa, x1 = 0.0196 | 801.6
332.95 K, 4000 kPa, x1 = 0.0196 | 802.56
332.95 K, 5000 kPa, x1 = 0.0196 | 803.52
332.95 K, 6000 kPa, x1 = 0.0196 | 804.48
332.95 K, 7000 kPa, x1 = 0.0196 | 805.45
332.95 K, 8000 kPa, x1 = 0.0196 | 806.4
332.95 K, 9000 kPa, x1 = 0.0196 | 807.35
332.95 K, 10000 kPa, x1 = 0.0196 | 808.29
332.95 K, 11000 kPa, x1 = 0.0196 | 809.23
332.95 K, 12000 kPa, x1 = 0.0196 | 810.15
332.95 K, 13000 kPa, x1 = 0.0196 | 811.07
332.95 K, 14000 kPa, x1 = 0.0196 | 811.98
332.95 K, 15000 kPa, x1 = 0.0196 | 812.86
332.95 K, 16000 kPa, x1 = 0.0196 | 813.75
332.95 K, 17000 kPa, x1 = 0.0196 | 814.61
332.95 K, 18000 kPa, x1 = 0.0196 | 815.46
332.95 K, 19000 kPa, x1 = 0.0196 | 816.3
332.95 K, 20000 kPa, x1 = 0.0196 | 817.11
333 K, 1000 kPa, x1 = 0.0267 | 811.86
333 K, 2000 kPa, x1 = 0.0267 | 812.8
333 K, 3000 kPa, x1 = 0.0267 | 813.76
333 K, 4000 kPa, x1 = 0.0267 | 814.69
333 K, 5000 kPa, x1 = 0.0267 | 815.65
333 K, 6000 kPa, x1 = 0.0267 | 816.59
333 K, 7000 kPa, x1 = 0.0267 | 817.53
333 K, 8000 kPa, x1 = 0.0267 | 818.45
333 K, 9000 kPa, x1 = 0.0267 | 819.38
333 K, 10000 kPa, x1 = 0.0267 | 820.29
333 K, 11000 kPa, x1 = 0.0267 | 821.22
333 K, 12000 kPa, x1 = 0.0267 | 822.11
333 K, 13000 kPa, x1 = 0.0267 | 823.01
333 K, 14000 kPa, x1 = 0.0267 | 823.9
333 K, 15000 kPa, x1 = 0.0267 | 824.77
333 K, 16000 kPa, x1 = 0.0267 | 825.63
333 K, 17000 kPa, x1 = 0.0267 | 826.48
333 K, 18000 kPa, x1 = 0.0267 | 827.32
333 K, 19000 kPa, x1 = 0.0267 | 828.13
333 K, 20000 kPa, x1 = 0.0267 | 828.94
333.04 K, 1000 kPa, x1 = 0.0136 | 784.43
333.04 K, 2000 kPa, x1 = 0.0136 | 785.41
333.04 K, 3000 kPa, x1 = 0.0136 | 786.41
333.04 K, 4000 kPa, x1 = 0.0136 | 787.39
333.04 K, 5000 kPa, x1 = 0.0136 | 788.38
333.04 K, 6000 kPa, x1 = 0.0136 | 789.37
333.04 K, 7000 kPa, x1 = 0.0136 | 790.36
333.04 K, 8000 kPa, x1 = 0.0136 | 791.33
333.04 K, 9000 kPa, x1 = 0.0136 | 792.31
333.04 K, 10000 kPa, x1 = 0.0136 | 793.27
333.04 K, 11000 kPa, x1 = 0.0136 | 794.24
333.04 K, 12000 kPa, x1 = 0.0136 | 795.2
333.04 K, 13000 kPa, x1 = 0.0136 | 796.14
333.04 K, 14000 kPa, x1 = 0.0136 | 797.07
333.04 K, 15000 kPa, x1 = 0.0136 | 797.98
333.04 K, 16000 kPa, x1 = 0.0136 | 798.89
333.04 K, 17000 kPa, x1 = 0.0136 | 799.78
333.04 K, 18000 kPa, x1 = 0.0136 | 800.65
333.04 K, 19000 kPa, x1 = 0.0136 | 801.51
333.04 K, 20000 kPa, x1 = 0.0136 | 802.34
